Among the data in patent US9266876B2 (Actelion Pharmaceuticals Ltd., priority 2012, dated 2016) are IC50 values, retold here.

As a reminder, the IC50 is the point on the concentration scale where inhibition reaches its midpoint.

For one test, the target named is CXCR3 (Homo sapiens (Human), UniProt P49682). Nature of the test: Receptor internalization assay. It is filed as cell-based. The note with it: human whole blood; final CXCL10 concentration 9 nM; 30 min 37° C.; CXCR3 cell surface expression on CD3 positive cells, flow cytometer; read-out: Internalization IC50. The procedure:
B): Receptor Internalization Assay:
Stock solutions of test compounds are made up at a concentration of 10 mM in DMSO, and serially diluted in PBS containing 0.5% BSA to concentrations required for inhibition dose response curves. Diluted compounds are then mixed with an equal volume of CXCL10 (Peprotech) diluted in PBS. Anticoagulated venous human whole blood is added to the mixture, which is then incubated in a CO2 incubator at 37° C. to allow for ligand mediated receptor internalization (final CXCL10 concentration is 9 nM). After 30′, the blood is mixed with fluorescently labeled CXCR3 and CD3 specific antibodies (Becton Dickinson) and incubated on ice for 10 minutes. Samples are then mixed with BD FACS Lysing Solution (Becton Dickinson) in order to eliminate red blood cells. After washing the cells with PBS containing 0.5% BSA, the samples are then analyzed in a flow cytometer (FACS Canto II, Becton Dickinson). For data analysis using FACSDiva software (Becton Dickinson), the mean fluorescence corresponding to CXCR3 cell surface expression was determined on CD3 positive cells. The program GraphPad Prism is used to fit the data to a single site dose response curve and to calculate IC50 values.
A general note: Flow cytometry measures light scatter and fluorescence of single cells or particles in a stream.

The target of the next test is human CXCR3A (Homo sapiens (Human), UniProt P49682). The test is described as follows: FLIPR assay. Type of test: cell-based. The note with it: CHO-K1 cells expressing the human CXCR3A coupled to Galpha(16); CXCL10 agonist 20 nM; Fluo-4-AM fluorescence; mean values if determined several times. The gist of the method: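 CHO-K1 cells expressing CXCR3A coupled to Gα16 were loaded with Fluo-4-AM for 1 h in Hepes-buffered HBSS, pH 7.4, with 5 mM probenecid. Compound dilutions were added on the FLIPR, followed by CXCL10 (added as a 20 nM solution). Baseline-subtracted peak fluorescence was fitted to a single-site curve for IC50.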
Chain of human CXCR3A (P49682 whole entry): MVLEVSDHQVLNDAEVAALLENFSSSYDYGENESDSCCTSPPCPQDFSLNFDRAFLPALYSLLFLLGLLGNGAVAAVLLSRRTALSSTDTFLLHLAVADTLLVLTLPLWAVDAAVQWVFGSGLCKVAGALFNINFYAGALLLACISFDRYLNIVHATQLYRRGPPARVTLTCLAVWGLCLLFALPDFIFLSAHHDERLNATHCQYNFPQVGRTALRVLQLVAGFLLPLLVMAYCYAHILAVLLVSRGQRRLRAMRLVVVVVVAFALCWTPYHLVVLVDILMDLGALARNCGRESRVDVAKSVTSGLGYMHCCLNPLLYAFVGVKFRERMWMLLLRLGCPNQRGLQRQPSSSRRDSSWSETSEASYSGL

Chain of CXCR3 (P49682 whole entry): as above

With `C[C@@H]1CN(c2scnc2-c2nc3ccccc3[nH]2)CCN1C(=O)Cn1cc2cccnc2n1` [Example 116, 1-{(R)-4-[4-(1H-Benzoimidazol-2-yl)-thiazol-5-yl]-2-methyl-piperazin-1-yl}-2-pyrazolo[3,4-b]pyridin-2-yl-ethanone], the IC50 on CXCR3 came out at 306 nM; at human CXCR3A it was 3 nM.

Consider `C[C@@H]1CN(c2sc(C(F)(F)F)nc2-c2nc3ccccc3[nH]2)CCN1C(=O)Cc1cccc(-n2nccn2)c1` [Example 201, 1-{(R)-4-[4-(1H-Benzoimidazol-2-yl)-2-trifluoromethyl-thiazol-5-yl]-2-methyl-piperazin-1-yl}-2-(3-[1,2,3]triazol-2-yl-phenyl)-ethanone], for which the IC50 on CXCR3 worked out at 2860 nM; at human CXCR3A, 2 nM.

`C[C@@H]1CN(c2scnc2-c2nc3ccccc3[nH]2)CCN1C(=O)Cn1ncc2cccnc21` [Example 115, 1-{(R)-4-[4-(1H-Benzoimidazol-2-yl)-thiazol-5-yl]-2-methyl-piperazin-1-yl}-2-pyrazolo[3,4-b]pyridin-1-yl-ethanone]: the half-maximal inhibitory concentration (IC50) came to 809 nM at CXCR3 and 1 nM at human CXCR3A.

`C[C@@H]1CN(c2sc(C(F)(F)F)nc2-c2nc3ccccc3[nH]2)CCN1C(=O)Cn1cnc(Br)n1` [Example 207, 1-{(R)-4-[4-(1H-Benzoimidazol-2-yl)-2-trifluoromethyl-thiazol-5-yl]-2-methyl-piperazin-1-yl}-2-(3-bromo-[1,2,4]triazol-1-yl)-ethanone]: the IC50 at CXCR3 stood at 332 nM; at human CXCR3A, 1 nM.

Take `C[C@@H]1CN(c2scnc2-c2nc3ccc(Cl)cc3[nH]2)CCN1C(=O)Cn1ccc2cccnc21` [Example 23, 1-{(R)-4-[4-(6-Chloro-1H-benzoimidazol-2-yl)-thiazol-5-yl]-2-methyl-piperazin-1-yl}-2-pyrrolo[2,3-b]pyridin-1-yl-ethanone]: the IC50 at CXCR3 is 181 nM; at human CXCR3A it was 0.2 nM.

`COc1cc2nc(-c3ncsc3N3CCN(C(=O)Cn4cnc5cccnc54)[C@H](C)C3)[nH]c2cc1OC` [Example 158, 1-{(R)-4-[4-(5,6-Dimethoxy-1H-benzoimidazol-2-yl)-thiazol-5-yl]-2-methyl-piperazin-1-yl}-2-imidazo[4,5-b]pyridin-3-yl-ethanone]: the figures for the IC50 on CXCR3 and on human CXCR3A were 3430 nM and 5 nM, respectively.

As to `Cc1nc(CN(C)C)nn1CC(=O)N1CCN(c2sc(C(F)(F)F)nc2-c2nc3ccccc3[nH]2)C[C@H]1C` [Example 218, 1-{(R)-4-[4-(1H-Benzoimidazol-2-yl)-2-trifluoromethyl-thiazol-5-yl]-2-methyl-piperazin-1-yl}-2-(3-dimethylaminomethyl-5-methyl-[1,2,4]triazol-1-yl)-ethanone], the results for the IC50 on CXCR3 and on human CXCR3A were 540 nM and 8 nM, respectively.

Regarding `O=C(Cn1cnc2ccccc21)N1CCN(c2scnc2-c2nc3ccccc3[nH]2)CC1` [Example 1, 2-Benzoimidazol-1-yl-1-{4-[4-(1H-benzoimidazol-2-yl)-thiazol-5-yl]-piperazin-1-yl}-ethanone], the IC50 on CXCR3 worked out at 3080 nM; on human CXCR3A, 30 nM.

Consider `C[C@@H]1CN(c2sc(CO)nc2-c2nc3ccccc3[nH]2)CCN1C(=O)Cn1cnc2cccnc21` [Example 225, 1-{(R)-4-[4-(1H-Benzoimidazol-2-yl)-2-hydroxymethyl-thiazol-5-yl]-2-methyl-piperazin-1-yl}-2-imidazo[4,5-b]pyridin-3-yl-ethanone], for which the IC50 at CXCR3 came out at 3460 nM; on human CXCR3A it was 54 nM.

With `C[C@@H]1CN(c2sc(C(F)(F)F)nc2-c2nc3cc(C4(O)CC4)ccc3[nH]2)CCN1C(=O)Cn1cnc2cccnc21` [Example 168, 1-((R)-4-{4-[5-(1-Hydroxy-cyclopropyl)-1H-benzoimidazol-2-yl]-2-trifluoromethyl-thiazol-5-yl}-2-methyl-piperazin-1-yl)-2-imidazo[4,5-b]pyridin-3-yl-ethanone], the IC50 at CXCR3 is 435 nM; on human CXCR3A it was 3 nM.

For `C[C@@H]1CN(c2scnc2-c2nc3ccccc3[nH]2)CCN1C(=O)Cn1ccc2ccnc(Cl)c21` [Example 142, 1-{(R)-4-[4-(1H-Benzoimidazol-2-yl)-thiazol-5-yl]-2-methyl-piperazin-1-yl}-2-(7-chloro-pyrrolo[2,3-c]pyridin-1-yl)-ethanone], the IC50 is 352 nM on CXCR3 and 2 nM on human CXCR3A.

Consider `C[C@@H]1CN(c2scnc2-c2nc3ccc(-c4ccccc4)cc3[nH]2)CCN1C(=O)Cn1cnc2cccnc21` [Example 100, 2-Imidazo[4,5-b]pyridin-3-yl-1-{(R)-2-methyl-4-[4-(6-phenyl-1H-benzoimidazol-2-yl)-thiazol-5-yl]-piperazin-1-yl}-ethanone], for which the figures for the IC50 at CXCR3 and at human CXCR3A were 747 nM and 1 nM, respectively.

Regarding `C[C@@H]1CN(c2scnc2-c2nc3ccccc3[nH]2)CCN1C(=O)Cc1cccc2ccccc12` [Example 118, 1-{(R)-4-[4-(1H-Benzoimidazol-2-yl)-thiazol-5-yl]-2-methyl-piperazin-1-yl}-2-naphthalen-1-yl-ethanone], the results for the IC50 at CXCR3 and at human CXCR3A were 3780 nM and 3 nM, respectively.

With `Cc1cc2[nH]c(-c3ncsc3N3CCN(C(=O)Cn4cnc5cccnc54)[C@H](C)C3)nc2cc1Cl` [Example 87, 1-{(R)-4-[4-(5-Chloro-6-methyl-1H-benzoimidazol-2-yl)-thiazol-5-yl]-2-methyl-piperazin-1-yl}-2-imidazo[4,5-b]pyridin-3-yl-ethanone], the IC50 was determined as 205 nM on CXCR3 and 1 nM at human CXCR3A.

In the case of `O=C(Cn1cnc2cccnc21)N1CCN(c2scnc2-c2nc3ccccc3[nH]2)CC1` [Example 14, 1-{4-[4-(1H-Benzoimidazol-2-yl)-thiazol-5-yl]-piperazin-1-yl}-2-imidazo[4,5-b]pyridin-3-yl-ethanone], the IC50 at CXCR3 amounted to 1800 nM; at human CXCR3A it was 11 nM.

As for `Cc1nc(C)n(CC(=O)N2CCN(c3sc(C(F)(F)F)nc3-c3nc4ccc(N5CCOCC5)cc4[nH]3)C[C@H]2C)n1` [Example 233, 2-(3,5-Dimethyl-[1,2,4]triazol-1-yl)-1-{(R)-2-methyl-4-[4-(6-morpholin-4-yl-1H-benzoimidazol-2-yl)-2-trifluoromethyl-thiazol-5-yl]-piperazin-1-yl}-ethanone], the IC50 amounted to 376 nM at CXCR3 and 6 nM at human CXCR3A.

Take `Cc1ncnn1CC(=O)N1CCN(c2sc(C(F)(F)F)nc2-c2nc3ccccc3[nH]2)C[C@H]1C` [Example 212, 1-{(R)-4-[4-(1H-Benzoimidazol-2-yl)-2-trifluoromethyl-thiazol-5-yl]-2-methyl-piperazin-1-yl}-2-(5-methyl-[1,2,4]triazol-1-yl)-ethanone]: the concentration for half-maximal inhibition (IC50) at CXCR3 stood at 737 nM; at human CXCR3A, 4 nM.

Regarding `O=C(Cn1ccc2cccnc21)N1CCN(c2sc(Br)nc2-c2nc3ccccc3[nH]2)CC1` [Example 38, 1-{4-[4-(1H-Benzoimidazol-2-yl)-2-bromo-thiazol-5-yl]-piperazin-1-yl}-2-pyrrolo[2,3-b]pyridin-1-yl-ethanone], the IC50 at CXCR3 worked out at 1580 nM; at human CXCR3A it was 3 nM.

For the molecule `C[C@@H]1CN(c2sc(C(F)(F)F)nc2-c2nc3ccccc3[nH]2)CCN1C(=O)Cn1cnc2cccnc21` [Example 51, 1-{(R)-4-[4-(1H-Benzoimidazol-2-yl)-2-trifluoromethyl-thiazol-5-yl]-2-methyl-piperazin-1-yl}-2-imidazo[4,5-b]pyridin-3-yl-ethanone], the IC50 on CXCR3 is 66 nM; on human CXCR3A, 1 nM.

As to `C[C@@H]1CN(c2scnc2-c2nc3cc(F)c(F)cc3[nH]2)CCN1C(=O)Cn1cnc2cccnc21` [Example 91, 1-{(R)-4-[4-(5,6-Difluoro-1H-benzoimidazol-2-yl)-thiazol-5-yl]-2-methyl-piperazin-1-yl}-2-imidazo[4,5-b]pyridin-3-yl-ethanone], the figures for the IC50 on CXCR3 and at human CXCR3A were 895 nM and 0.4 nM, respectively.

Turning to `C[C@@H]1CN(c2sc(-c3ccccc3F)nc2-c2nc3ccccc3[nH]2)CCN1C(=O)Cn1cnc2cccnc21` [Example 148, 1-{(R)-4-[4-(1H-Benzoimidazol-2-yl)-2-(2-fluoro-phenyl)-thiazol-5-yl]-2-methyl-piperazin-1-yl}-2-imidazo[4,5-b]pyridin-3-yl-ethanone], the results for the IC50 at CXCR3 and at human CXCR3A were 4490 nM and 24 nM, respectively.

Take `O=C(Cn1ccc2ccccc21)N1CCN(c2scnc2-c2nc3ccccc3[nH]2)CC1` [Example 4, 1-{4-[4-(1H-Benzoimidazol-2-yl)-thiazol-5-yl]-piperazin-1-yl}-2-indol-1-yl-ethanone]: the figures for the IC50 at CXCR3 and on human CXCR3A were 2610 nM and 15 nM, respectively.

For `CC(=O)c1ccc2[nH]c(-c3nc(C(F)(F)F)sc3N3CCN(C(=O)Cn4cnc5cccnc54)[C@H](C)C3)nc2c1` [Example 165, 1-{(R)-4-[4-(5-Acetyl-1H-benzoimidazol-2-yl)-2-trifluoromethyl-thiazol-5-yl]-2-methyl-piperazin-1-yl}-2-imidazo[4,5-b]pyridin-3-yl-ethanone], the IC50 at CXCR3 was determined as 98 nM; at human CXCR3A, 1 nM.
